Read-outs that look alike come from different tables or passages of the source.
Key:
hP2X3 = biological target: T1, hP2X3 (Homo sapiens, UniProt P56373); assay: Calcium uptake assay (P2X antagonist assay), P2X3 homomer; type: cell-based; settings: hP2X3
T1 construct: expressed in transfected cells; host or cells: e.g. HEK293 or 1321N1
T1 sequence (P56373 1-397): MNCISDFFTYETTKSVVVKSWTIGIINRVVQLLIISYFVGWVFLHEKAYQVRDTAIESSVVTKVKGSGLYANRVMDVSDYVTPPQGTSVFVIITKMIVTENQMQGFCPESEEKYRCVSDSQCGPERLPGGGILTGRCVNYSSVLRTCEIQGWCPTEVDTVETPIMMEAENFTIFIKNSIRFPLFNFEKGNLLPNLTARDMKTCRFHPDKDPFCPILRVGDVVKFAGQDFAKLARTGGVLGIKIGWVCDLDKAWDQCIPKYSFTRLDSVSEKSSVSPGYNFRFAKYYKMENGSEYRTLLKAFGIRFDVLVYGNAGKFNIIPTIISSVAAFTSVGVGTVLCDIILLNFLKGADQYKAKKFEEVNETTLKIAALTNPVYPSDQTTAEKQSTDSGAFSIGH
Outline: (§1)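 Stably or transiently transfected HEK293 or 1321N1 cells; the heteromer is made by adding P2X3 to a P2X2-stable line, with heteromer function isolated pharmacologically. The peak-minus-baseline FLIPR calcium signal gives % inhibition and a 4-parameter-logistic IC50.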

hP2X2/3H = biological target: T2, hP2X2/3H (Homo sapiens, UniProt P56373+Q9UBL9); assay: Calcium uptake assay (P2X antagonist assay), P2X2/3 heteromer; type: cell-based; settings: hP2X2/3H
T2 construct: expressed in transfected cells; host or cells: e.g. HEK293 or 1321N1
T2 sequence (Q9UBL9 1-471): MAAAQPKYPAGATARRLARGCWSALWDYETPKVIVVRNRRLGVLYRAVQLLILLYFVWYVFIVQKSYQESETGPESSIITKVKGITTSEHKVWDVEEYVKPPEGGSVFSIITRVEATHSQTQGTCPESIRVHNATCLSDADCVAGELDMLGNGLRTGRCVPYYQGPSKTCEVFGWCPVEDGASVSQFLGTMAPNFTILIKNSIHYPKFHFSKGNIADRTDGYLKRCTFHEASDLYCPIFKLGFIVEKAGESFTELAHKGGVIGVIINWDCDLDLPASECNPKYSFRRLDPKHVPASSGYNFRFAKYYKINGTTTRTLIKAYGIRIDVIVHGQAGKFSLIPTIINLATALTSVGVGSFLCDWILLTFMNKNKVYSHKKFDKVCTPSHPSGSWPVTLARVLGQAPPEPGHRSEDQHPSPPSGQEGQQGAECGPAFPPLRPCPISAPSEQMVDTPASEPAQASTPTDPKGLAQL
T2 sequence (P56373 1-397): T1 sequence (P56373 1-397)
Outline: as §1

[1] = Ca influx (calcium uptake assay), read-out: IC50 hP2X3
[2] = Ca influx (calcium uptake assay), read-out: IC50 hP2X2/3H
[3] = calcium uptake assay, read-out: IC50 hP2X3 (nM), Ca Influx
[4] = calcium uptake assay, read-out: IC50 hP2X2/3H (nM), Ca Influx

Compound | IC50 (hP2X3; [1]) | IC50 (hP2X2/3H; [2]) | IC50 (hP2X3; [3]) | IC50 (hP2X2/3H; [4])
Cc1ccc(-c2cc(C(=O)N[C@H](C)c3cnc(C)nc3)cc(C(O)c3ccccn3)c2)c(C#N)c1 (stereo partly shown) [Compound 285] | < 100 nM | < 100 nM |  | 
Cc1ccc(-c2cc(Oc3nccs3)cc(C(=O)N[C@H](C)c3cnc(C)nc3)c2)cc1 [Compound 236, (R)-4′-Methyl-N-(1-(2-methylpyrimidin-5-yl)ethyl)-5-(thiazol-2-yloxy)biphenyl-3-carboxamide] | < 100 nM | < 100 nM |  | 
Cc1ccc(-c2cc(C(=O)NC(c3ccc(C)nc3)C(F)(F)F)cc(S(C)(=O)=O)c2)cc1 (stereo not shown) [Compound 213] | > 1000 nM | > 1000 nM |  | 
Cc1ccc(-c2cc(C(=O)N[C@H](C)c3cnc(C)nc3)cc(C(O)C(F)(F)F)c2)c(C#N)c1 (stereo partly shown) [Compound 353] | < 100 nM | < 100 nM |  | 
Cc1ccc(-c2cc(C(=O)N[C@@H](C)CO)cc(S(=O)(=O)C(C)C)c2)cc1 [Compound 288] | < 100 nM | > 1000 nM |  | 
Cc1ccc(CNC(=O)c2cc(-c3ccc(Cl)c(F)c3)cc(S(C)(=O)=O)c2)cn1 [Compound 136] |  |  | 501 to 1000 nM | > 1000 nM
Cc1ccc(-c2cc(Oc3ncccn3)cc(C(=O)N[C@H](C)c3cnc(C)nc3)c2)nc1 [Compound 273] | 100 to 500 nM | 501 to 1000 nM |  | 
Cc1ccc(-c2cc(OC(C)CO)cc(C(=O)N[C@H](C)c3ccc(C)nc3)c2)nc1 (stereo partly shown) [Compound 345] | < 100 nM | < 100 nM |  | 
Cc1ccc(-c2cc(C(=O)N[C@H](C)c3cnc(C)nc3)cc(C(O)c3nccs3)c2)c(C#N)c1 (stereo partly shown) [Compound 293] | < 100 nM | < 100 nM |  | 
Cc1ccc(-c2cc(Oc3nc(C)cs3)cc(C(=O)N[C@H](C)c3ccc(C)nc3)c2)cc1 [Compound 381] | < 100 nM | < 100 nM |  | 
COCc1cc(C(=O)N[C@H](C)c2cnc(C)nc2)cc(-c2ccc(C)cn2)c1 [Compound 274, (R)-3-(Methoxymethyl)-5-(5-methylpyridin-2-yl)-N-(1-(2-methylpyrimidin-5-yl)ethyl)benzamide] | 100 to 500 nM | 100 to 500 nM |  | 
Cc1ccc(-c2cc(C(=O)N[C@H](CCO)c3ccc(C)nc3)cc(C(=O)N(C)CC(C)C)c2)cc1 [Compound 13, (R)—N3-(3-Hydroxy-1-(6-methylpyridin-3-yl)propyl)-N5-isobutyl-N5,4′-dimethylbiphenyl-3,5-dicarboxamide] |  |  | 100 to 500 nM | 100 to 500 nM
Cc1ccc(-c2cc(C(=O)NCc3ccc(C)c(S(C)(=O)=O)c3)cc(S(C)(=O)=O)c2)cc1 [Compound 36] |  |  | < 100 nM | < 100 nM
Cc1ccc(-c2cc(C(=O)N[C@H](C)c3ccc(C(F)(F)F)nc3)cc(S(C)(=O)=O)c2)cc1 [Compound 35] |  |  | < 100 nM | < 100 nM
Cc1ccc(-c2cc(OCC3CCCO3)cc(C(=O)N[C@H](C)c3ccc(C)nc3)c2)c(C#N)c1 (stereo partly shown) [Compound 312] | < 100 nM | < 100 nM |  | 
Cc1ccc(-c2cc(C(=O)N[C@H](C)c3cnc(C)nc3)cc(C(O)c3ccccc3)c2)nc1 (stereo partly shown) [Compound 277] | < 100 nM | < 100 nM |  | 
Cc1ccc(-c2cc(C(=O)N[C@H](C)c3ccc(C)nc3)cc(C(O)c3nccs3)c2)c(C#N)c1 (stereo partly shown) [Compound 294] | < 100 nM | < 100 nM |  | 
Cc1ccc(-c2cc(C(=O)N[C@H](C)c3ccc(C)nc3)cc(S(=O)(=O)C(C)C)c2)cc1 [Compound 197] |  |  | < 100 nM | < 100 nM
Cc1ccc(-c2cc(C(=O)N[C@H](C)c3ccc(C)nc3)cc(C(O)c3ccccc3)c2)nc1 (stereo partly shown) [Compound 276] | < 100 nM | < 100 nM |  | 

More lines, now with the values ahead:

IC50 (hP2X3; [1]) | IC50 (hP2X2/3H; [2]) | IC50 (hP2X3; [3]) | IC50 (hP2X2/3H; [4]) | Compound
< 100 nM | < 100 nM |  |  | CCS(=O)(=O)c1cc(C(=O)NCc2cnc(C)nc2)cc(-c2ccc(C)cc2)c1 [Compound 212]
 |  | < 100 nM | < 100 nM | Cc1ccc(-c2cc(C(=O)N[C@H](C)c3cnc(C)nc3)cc(S(C)(=O)=O)c2)cc1 [Compound 116, (R)-4′-Methyl-N-(1-(2-methylpyrimidin-5-yl)ethyl)-5-(methylsulfonyl)biphenyl-3-carboxamide]
 |  | < 100 nM | 100 to 500 nM | Cc1ccc(-c2cc(C(=O)NCc3ccc(C(F)(F)F)nc3)cc(C(=O)N3CCCC3)c2)c(C#N)c1 [Compound 62, 2′-Cyano-4′-methyl-5-(pyrrolidine-1-carbonyl)-N-((6-(trifluoromethyl)pyridin-3-yl)methyl)biphenyl-3-carboxamide]
 |  | < 100 nM | < 100 nM | Cc1ccc(-c2cc(C(=O)NCc3ccc(Cl)nc3)cc(C(=O)N3CCCC3)c2)cc1 [Compound 91]
 |  | < 100 nM | < 100 nM | Cc1ccc(-c2cc(C(=O)N[C@H](C)c3cnc(C)nc3)cc(C(=O)N(C)CC(C)C)c2)cc1 [Compound 14, (R)—N3-Isobutyl-N3,4′-dimethyl-N5-(1-(2-methylpyrimidin-5-yl)ethyl)biphenyl-3,5-dicarboxamide]
 |  | > 1000 nM | > 1000 nM | Cc1ccc(-c2cc(C(=O)N[C@@H](C)c3ccc(C)nc3)cc(C(=O)N3CCCC3)c2)cc1 [Compound 177]
 |  | < 100 nM | 100 to 500 nM | Cc1ccc(-c2cc(C(=O)NCc3cnc(C)nc3)cc(C(=O)N3CCOCC3)c2)cc1 [Compound 24]
 |  | < 100 nM | < 100 nM | Cc1ccc(-c2cc(C(=O)NCc3ccc(C(F)(F)F)nc3)cc(C(=O)N3CCCC3)c2)nc1 [Compound 123]
< 100 nM | < 100 nM |  |  | Cc1ccc(-c2cc(C(=O)NCc3ccc(C)nc3)cc(C(O)CN3CCOCC3)c2)cc1 (stereo not shown) [Compound 365, 5-(1-Hydroxy-2-morpholinoethyl)-4′-methyl-N-((6-methylpyridin-3-yl)methyl)biphenyl-3-carboxamide]
 |  | < 100 nM | < 100 nM | Cc1ccc(-c2cc(C(=O)NCc3ccc(C)nc3)cc(S(=O)(=O)N3CCCC3)c2)cc1 [Compound 105]
 |  | < 100 nM | < 100 nM | CCOC(=O)c1cc(C(=O)NCc2cnc(C)nc2)cc(-c2ccc(C)cc2)c1 [Compound 15, Ethyl 4′-methyl-5-((2-methylpyrimidin-5-yl)methylcarbamoyl)biphenyl-3-carboxylate]
 |  | < 100 nM | < 100 nM | Cc1ccc(-c2cc(C(=O)NCc3ccc(C)nc3)cc(S(=O)(=O)N3CCCC3)c2)nc1 [Compound 106]
 |  | 100 to 500 nM | 501 to 1000 nM | Cc1ccc(-c2cc(C(=O)NCc3ccc(C)nc3)cc(C(=O)N3CC[C@@H](N(C)C)C3)c2)cc1 [Compound 143]
 |  | < 100 nM | < 100 nM | Cc1ccc(-c2cc(C(=O)N[C@H](CO)c3ccc(C(F)F)nc3)cc(C(=O)N3CCCC3)c2)cc1 [Compound 89]
< 100 nM | 501 to 1000 nM |  |  | Cc1ccc(-c2cc(C(=O)NCc3ccc(C)nc3)cc(C(O)CN3CCN(C)CC3)c2)cc1 (stereo not shown) [Compound 366]
 |  | < 100 nM | < 100 nM | Cc1ccc(-c2cc(C(=O)NCc3cnc(C)nc3)cc(S(=O)(=O)CC(C)C)c2)cc1 [Compound 184]
 |  | < 100 nM | < 100 nM | Cc1ccc(-c2cc(C(=O)NCc3ncc(Cl)cc3Cl)cc(C(=O)N3CC(O)C3)c2)cc1 [Compound 134]
 |  | 100 to 500 nM | 501 to 1000 nM | Cc1ccc(-c2cc(C(=O)N[C@@H](C)c3cnc(C)nc3)cc(C(=O)N3CCCC3)c2)cc1 [Compound 93]
 |  | < 100 nM | < 100 nM | Cc1ccc(-c2cc(C(=O)NCc3cnc(C)nc3)cc(C(=O)N3CCCCCC3)c2)cc1 [Compound 19, 5-(Azepane-1-carbonyl)-4′-methyl-N-((2-methylpyrimidin-5-yl)methyl)biphenyl-3-carboxamide]
 |  | 100 to 500 nM | 100 to 500 nM | Cc1ccc(-c2cc(C(=O)NCc3ccc(C)nc3)cc(C(=O)N3C[C@H]4CNC[C@H]4C3)c2)cc1 [Compound 140, 4′-Methyl-N-((6-methylpyridin-3-yl)methyl)-5-((3aR,6aS)-octahydropyrrolo[3,4-c]pyrrole-2-carbonyl)biphenyl-3-carboxamide]
< 100 nM | < 100 nM |  |  | Cc1ccc(CNC(=O)c2cc(C(=O)N3CCCC3)cc(-c3ccc(Br)cc3)c2)cn1 [Compound 200, 4′-Bromo-N-((6-methylpyridin-3-yl)methyl)-5-(pyrrolidine-1-carbonyl)biphenyl-3-carboxamide]
< 100 nM | 100 to 500 nM |  |  | Cc1ccc(-c2cc(C(=O)NCc3ccc(C)[n+]([O-])c3)cc(C(O)CN3CCCC3)c2)cc1 (stereo not shown) [Compound 208]

Reference: patent US8946439B2, “Amide compounds, compositions and uses thereof” (Evotec AG, priority 2008, dated 2015)
